Series [1] deals with Plasmodium vinckei petteri. The series is described as follows: Antimalarial activity against Plasmodium vinckei petteri 279BY infected in Swiss mouse assessed as reduction in parasitemia administered once daily via intraperitoneal route starting from day 1 to day 4 post infection measured on day 5 Giemsa staining based flow cytometric analysis. The series is classed as functional. The note with it: ip.

Series [2] has as its system Plasmodium falciparum. The series can be described thus: Antimalarial activity against chloroquine-sensitive Plasmodium falciparum Nigerian infected in human blood after 48 hrs by [3H]-hypoxanthine incorporation assay. It is filed as functional, organism-based.
Series [3] concerns Plasmodium vinckei petteri. The series can be described thus: Antimalarial activity against Plasmodium vinckei petteri 279BY infected in Swiss mouse assessed as reduction in parasitemia administered once daily via oral gavage starting from day 1 to day 4 post infection measured on day 5 Giemsa staining based flow cytometric analysis. It is filed as functional. On the technique in general: A flow cytometer gives signals particle by particle.

Series [4] can be described thus: Retention time of compound at 0.05 mg/ml by HPLC analysis. The series is classed as physicochemical.
Series [5] in a line: Retention time of compound in human liver microsomes at 0.5 mM after 2 hrs HPLC-UV analysis. The series is classed as ADME, Microsome. To be noted: 500 µM. Background: Microsomes from liver hold many membrane-bound enzymes, among them those of drug oxidation.
Series [6] in a line: Drug metabolism in human liver microsomes assessed as 1-(4-N-pyrrolidinylamidinophenoxy)-8-N-pyrrolidinylamidinooctane dihydrochloride formation by measuring retention time of metabolite at 0.5 mM after 2 hrs by LC-MS analysis. The series is classed as ADME, Microsome. The note with it: 500 µM.
A short description of series [7]: Stability of compound in human blood at 1000 ug/ml up to 120 mins by HPLC-UV analysis. It is filed as ADME, tissue-based. The note with it: 2 h.
A short description of series [8]: Stability of compound in human plasma at 1000 ug/ml up to 120 mins by HPLC-UV analysis. It is filed as ADME, cell-free. The note with it: 2 h.
The nature of series [9]: Drug metabolism in human liver microsomes assessed as disappearance of parent compound at 0.5 mM after 2 hrs by HPLC-UV analysis. It is filed as ADME, Microsome. The note with it: read-out: Drug metabolism.
For series [10], the system named is Plasmodium falciparum. The series is described as follows: Antimalarial activity against chloroquine-sensitive Plasmodium falciparum Nigerian after 48 hrs by [3H]-hypoxanthine incorporation assay. It is filed as functional, organism-based.
The subject of series [11] is Plasmodium vinckei petteri. The series is described as follows: Antimalarial activity against Plasmodium vinckei petteri 279BY infected in Swiss mouse assessed as reduction in parasitemia at 20 mg/kg, ip once daily for 4 consecutive days starting from day 1 to day 4 post infection and measured on day 5 Giemsa staining based flow cytometric analysis. It is filed as functional, organism-based.

In series [12] the test system is Plasmodium vinckei petteri. The series can be described thus: Antimalarial activity against Plasmodium vinckei petteri 279BY infected in Swiss mouse assessed as reduction in parasitemia at dosed intraperitoneally once daily for 4 consecutive days starting from day 1 to day 4 post infection and measured on day 28 by Giemsa staining based flow cytometric analysis. The series is classed as functional. Also noted: scale not given: the % may be the effect or the level left.

Series [13] concerns Plasmodium vinckei petteri. The series can be described thus: Selectivity index, ratio of ED50 for antimalarial activity against Plasmodium vinckei petteri 279BY infected in Swiss mouse administered via intraperitoneal route to ED50 for antimalarial activity against Plasmodium vinckei petteri 279BY infected in Swiss mouse administered via oral route. It is filed as functional.

A short description of series [14]: Drug metabolism in human liver microsomes assessed as 1-(4-N-isopropylamidinophenoxy)-8-N-isopropylamidinooctane dihydrochloride formation by measuring disappearance of parent compound at 0.5 mM after 2 hrs by HPLC-UV analysis. To be noted: 500 µM. It is filed as ADME, Microsome.
Series [15] in a line: Drug metabolism in human liver microsomes assessed as 1-(4-N-isopropylamidinophenoxy)-8-N-isopropylamidinooctane dihydrochloride formation by measuring retention time of metabolite at 0.5 mM after 2 hrs by HPLC-UV analysis. To be noted: 500 µM. The series is classed as ADME, Microsome.
Series [16] in a line: Drug metabolism in human liver microsomes assessed as monoamidine-1 formation by measuring retention time of metabolite at 0.5 mM after 2 hrs by HPLC-UV analysis. It is filed as ADME, Microsome. To be noted: 500 µM.
A short description of series [17]: Drug metabolism in human liver microsomes assessed as 1-(4-Amidinophenoxy)-8-amidinooctane dihydrochloride formation by measuring retention time of metabolite at 0.5 mM after 2 hrs by HPLC-UV analysis. The note with it: 500 µM. The series is classed as ADME, Microsome.

Active and inactive are the calls of the source. The calls are words filed in the database; no cut-off is given here.

One may read the ED50 as the midpoint of the dose-response relation. Broadly, the IC50 is the concentration at which inhibition is half-maximal. As for `Cl.Cl.N=C(CCCCCCCCOc1ccc(C(=N)N2CCCC2)cc1)N1CCCC1`, the results for the ED50 in series [1] and in series [3] were 1.4 mg/kg and 51 mg/kg, respectively. Besides, the half-inhibitory concentration (IC50) in series [2] worked out at 16 nM. The same compound returned a Retention_time in series [4] of 11.8 min.

For `Cc1c(CCO)sc[n+]1CCCCCCCCCCCC/C(N)=N/O.[Br-]`, the ED50 in series [1] was 20 mg/kg; in [3], above 180 mg/kg. Half-maximal inhibition in series [2] (IC50) required 240 nM.

Consider `Br.Br.O/N=C(/c1ccc(OCCCCCCCC/C(=N\O)N2CCCC2)cc1)N1CCCC1`, for which the ED50 in [1] is 10 mg/kg; in [3], above 100 mg/kg. Besides, the Retention_time is 12.3 min in series [5], 11.8 min in series [6] and 12.6 min in [4]. In addition, the Stability entry in series [7] and in [8] was “Stable” in each case. For the same compound, the metabolised at 2 h, 500 µM in series [9] is 14%.

In the case of `Cl.Cl.N=C(N)CCCCCCCCCCCOc1ccc(C(=N)N)cc1`, in series [1], the 50% effective dose (ED50) came out at 2.2 mg/kg. Besides, the IC50 in series [2] is 195 nM.

Turning to `COc1ccc(/C(=N/O)NCCCCCCCCCCCCN/C(=N\O)c2ccc(OC)c(OC)c2)cc1OC`, the ED50 is 9.1 mg/kg in series [1] and above 90 mg/kg in series [3].

On to `O/N=C(\NCCCCCCCCCCCCN/C(=N\O)c1ccccc1)c1ccccc1`, for which the figures for the ED50 in series [1] and in series [3] were above 20 mg/kg and above 90 mg/kg, respectively.

With `Cc1c(CCO)sc[n+]1CCCCCCCCCCCCC(=N)N`, the IC50 in [10] was determined as 2.2 nM.

For `N/C(=N\O)c1ccc(OCCCCCOc2ccc(/C(N)=N/O)cc2)cc1` [PENTAMIDINE DAO], the Retention_time in [5] turned out to be 29 min; in [4], 22.3 min. Further, the Stability entry in series [7] and in series [8] was “Stable” each time. The metabolised at 2 h, 500 µM in [9] came out at 3%.

On to `N=C(N)c1ccc(OCCCCCOc2ccc(C(=N)N)cc2)cc1` [PENTAMIDINE], for which the Retention_time was found to be 25.1 min in [5] and 25.4 min in [4]. Also, the metabolised at 2 h, 500 µM in [9] was determined as 82%.

Turning to `COc1ccc(/C(=N/O)NCCCCCCCCCCCCN/C(=N\O)c2ccc(OC)cc2)cc1`, the 50% effective dose (ED50) in series [1] was above 20 mg/kg; in series [3], above 90 mg/kg. In series [2], this compound displayed an IC50 of 24000 nM.

As for `CC(C)NC(=N)CCCCCCCCOc1ccc(C(=N)NC(C)C)cc1.Cl.Cl`, the ED50 in series [1] came to 2.8 mg/kg; in series [3], 110 mg/kg. The same compound came in with an IC50 in series [2] of 9.5 nM. In series [4], this compound had a Retention_time of 10.1 min.

On to `Cc1c(CCO)sc[n+]1CCCCCCCCOc1ccc(/C(N)=N/O)cc1.[Br-]`, for which the ED50 in [1] is above 20 mg/kg; in series [3], 85 mg/kg. Moreover, the concentration for half-maximal inhibition (IC50) in series [2] was 360 nM. In [11], the result was inactive. Besides, the Activity in series [12] was 100%. The “Ratio ED50” value in [13] is recorded as above 0.23.

`COCCc1sc[n+](CCCCCCCCCCCOc2ccc(/C(N)=N/O)cc2)c1C.[Br-]`: the ED50 is 8.8 mg/kg in series [1] and above 90 mg/kg in [3]. This compound also had an IC50 in series [2] of 530 nM.

Take `CCN(CC)CCCC(C)Nc1ccnc2cc(Cl)ccc12` (centres undefined) [CHLOROQUINE]: the median effective dose (ED50) is 1.1 mg/kg in [1] and 3.4 mg/kg in series [3].

For the compound `CO/N=C(\NCCCCCCCCCCCCN/C(=N\OC)c1ccc(OC)c(OC)c1)c1ccc(OC)c(OC)c1`, the results for the ED50 in series [1] and in series [3] were above 20 mg/kg and above 90 mg/kg, respectively.

As to `CO/N=C(\NCCCCCCCCCCCCN/C(=N\OC)c1ccccc1)c1ccccc1`, the median effective dose (ED50) in series [1] was above 20 mg/kg; in [3], above 90 mg/kg.

`Br.Br.CC(C)N/C(=N\O)c1ccc(OCCCCCCCC/C(=N\O)NC(C)C)cc1`: the figures for the ED50 in series [1] and in series [3] were above 20 mg/kg and above 180 mg/kg, respectively. In addition, the Retention_time in [5] stood at 13.3 min; in [4], 13.1 min; in [15] it was 10 min; in series [16], 12.1 min. Further, the Stability entry in series [7] and in series [8] was “Stable” in each case. For the same compound, the Drug metabolism in [14] was 90%. In addition, in series [9], the metabolised at 2 h, 500 µM worked out at 6%.

In the case of `C[C@H]1[C@H](OC(=O)CCC(=O)O)O[C@@H]2O[C@@]3(C)CC[C@H]4[C@H](C)CC[C@@H]1[C@@]24OO3` [ARTESUNATE], in series [1], the median effective dose (ED50) stood at 1.2 mg/kg.

As for `Cc1c(CCO)sc[n+]1CCCCCCCCCCCOc1ccc(/C(N)=N/O)cc1.[Br-]`, the ED50 in series [1] was above 20 mg/kg; in [3], above 90 mg/kg. In series [2], this compound gave an IC50 of 315 nM.

With `Cl.Cl.N=C(N)CCCCCCCCOc1ccc(C(=N)N)cc1`, the ED50 is 9 mg/kg in series [1] and above 90 mg/kg in series [3]. In [2], inhibition was half-maximal at 51.5 nM (IC50). This compound returned a Retention_time in series [4] of 12.9 min.

As for `CO/N=C(\NCCCCCCCCCCCCN/C(=N\OC)c1cccc(OC)c1)c1cccc(OC)c1`, the ED50 is above 20 mg/kg in [1] and above 90 mg/kg in [3].

In the case of `COc1cccc(/C(=N/O)NCCCCCCCCCCCCN/C(=N\O)c2cccc(OC)c2)c1`, the ED50 is above 20 mg/kg in series [1] and above 90 mg/kg in [3].

In the case of `Br.Br.N/C(=N\O)c1ccc(OCCCCCCCC/C(N)=N\O)cc1`, the ED50 in [1] is above 10 mg/kg; in [3], above 180 mg/kg. The same compound registered a half-inhibitory concentration (IC50) in series [2] of 2000 nM. Besides, the Retention_time in series [5] is on record as 15.6 min; in series [17] it was 17.3 min; in series [4], 11.5 min; in series [16], 16.5 min. Besides, the Stability entry in series [7] and in [8] was “Stable” throughout. Further, the metabolised at 2 h, 500 µM in [9] came to 7%.

These data come from ChEMBL document CHEMBL4346733, “Evaluation of amidoxime derivatives as prodrug candidates of potent bis-cationic antimalarials” (Bioorg Med Chem Lett, 2019).
